Assay results reported in PubChem BioAssay AID789 (SRMLSC, 2007).
The source made the active and inactive calls. No rule for the calls is given here.

Legend:
[1] = growth inhibition of apl2Δ yeast, dose response, selectivity assay for post-Golgi transport modulator project, S. cerevisiae, secondary screen, background strain comparison (AID 789); conditions: S. cerevisiae background (wild-type parent) strain growth inhibition
[2] = system: S. cerevisiae apl2Δ mutant growth inhibition; assay: as above

CC(C)OC(=O)CSc1nnc(-c2ccc(Cl)cc2)n1N
IC50 [1]: > 10 µM | IC50 [2]: > 10 µM (inactive)

OC(Cn1ccnc1)c1ccc(Cl)cc1Cl (configuration not stated)
IC50 [1]: > 10 µM | IC50 [2]: > 10 µM (inactive)

CC(=O)c1cnc2nc(C)nn2c1C
IC50 [1]: > 10 µM | IC50 [2]: > 10 µM (inactive)

O=C(Nc1nnc(-c2ccc3c(c2)CCCC3)o1)c1ccccc1Cl
IC50 [1]: 10.7 µM | IC50 [2]: > 10 µM (inactive)

COc1cccc(NC(=O)C2CCCN2C(=O)OCc2ccccc2)c1 (configuration not stated)
IC50 [1]: > 10 µM | IC50 [2]: > 10 µM (inactive)

Cc1cccc2cc(C#N)c(NCCCn3ccnc3)nc12
IC50 [1]: > 10 µM | IC50 [2]: > 10 µM (inactive)

O=S(=O)(NCC(c1cccnc1)N1CCN(c2ccccc2)CC1)c1cccs1 (configuration not stated)
IC50 [1]: > 10 µM | IC50 [2]: > 10 µM (inactive)

COc1ccc(CN(C(=O)Cc2cccs2)C(C(=O)NC2CCCC2)c2ccncc2)cc1 (configuration not stated)
IC50 [1]: > 10 µM | IC50 [2]: > 10 µM (inactive)

Cc1nc(NC(=O)c2ccccc2)sc1-c1csc(NCc2ccccc2)n1
IC50 [1]: > 10 µM | IC50 [2]: > 10 µM (inactive)

Cc1cccc(OCC(=O)O/N=C(\N)Cc2ccc(Cl)cc2)c1
IC50 [1]: 10.4 µM | IC50 [2]: > 10 µM (inactive)

COc1ccc(Cl)cc1NC(=O)C(C)N1CCN(C/C=C/c2ccccc2)CC1 (configuration not stated)
IC50 [1]: 15 µM | IC50 [2]: 20.4 µM (inactive)

Cc1cccc(N2CCN(CC(=O)Nc3nccs3)CC2)c1C
IC50 [1]: > 10 µM | IC50 [2]: > 10 µM (inactive)

CCc1ccc(C(=O)/C=C/c2ccc([N+](=O)[O-])o2)cc1
IC50 [1]: 20.7 µM | IC50 [2]: > 10 µM (inactive)

COC(=O)c1ccc(NC(=O)c2cn(-c3ccccc3)nc2-c2ccncc2)cc1
IC50 [1]: > 10 µM | IC50 [2]: > 10 µM (inactive)

Cc1c(Cc2ccccc2)c(=O)oc2c(C)c(OCc3nn[nH]n3)ccc12
IC50 [1]: > 10 µM | IC50 [2]: > 10 µM (inactive)

Cc1ccc(/C=N/n2cnc3sc(-c4ccccc4)cc3c2=O)o1
IC50 [1]: > 10 µM | IC50 [2]: > 10 µM (inactive)

O=C(Nc1nnc(-c2ccc(Cl)cc2)o1)c1ccccc1Br
IC50 [1]: 13.1 µM | IC50 [2]: > 10 µM (inactive)

Fc1ccc(Cn2nnc(-c3ccc(CN4CCOCC4)cc3)n2)cc1
IC50 [1]: > 10 µM | IC50 [2]: > 10 µM (inactive)

Cc1ccc(C)c(C(=O)NCc2ccncc2)c1
IC50 [1]: > 10 µM | IC50 [2]: > 10 µM (inactive)

O=C(Cc1cccs1)Nc1nc2c(s1)CCCC2
IC50 [1]: > 10 µM | IC50 [2]: > 10 µM (inactive)

COc1cccc(C(=O)N2CCN(C3CCC(c4ccccc4)CC3)CC2)c1OC (configuration not stated)
IC50 [1]: 23.9 µM | IC50 [2]: 14.6 µM

Fc1ccc(-c2noc(C3CCN(Cc4cccnc4)CC3)n2)cc1
IC50 [1]: > 10 µM | IC50 [2]: > 10 µM (inactive)

O=[N+]([O-])c1cc(C(F)(F)F)ccc1N/N=C/c1cc2ccccc2nc1Cl
IC50 [1]: > 10 µM | IC50 [2]: > 10 µM (inactive)

Cc1ccc(S(=O)(=O)N2CCN(C3CCN(Cc4ccccc4)CC3)CC2)cc1
IC50 [1]: > 10 µM | IC50 [2]: > 10 µM (inactive)

O=Cc1cc2ccccc2nc1SCc1ccc(Cl)cc1
IC50 [1]: > 10 µM | IC50 [2]: > 10 µM (inactive)

Nc1c(C(=O)OCC2CCCO2)c2nc3ccccc3nc2n1-c1ccc2c(c1)OCCO2 (configuration not stated)
IC50 [1]: > 10 µM | IC50 [2]: > 10 µM (inactive)

CCOC(=O)c1cccnc1SCc1cc(=O)n2ccccc2n1
IC50 [1]: > 10 µM | IC50 [2]: > 10 µM (inactive)

CCCC(=O)Nc1ccc(Cl)c(NC(=O)c2cccnc2Cl)c1
IC50 [1]: > 10 µM | IC50 [2]: > 10 µM (inactive)

COc1ccc2nc(NCCCNC(=O)c3cc(OC)c(OC)c(OC)c3)c(C#N)cc2c1
IC50 [1]: > 10 µM | IC50 [2]: > 10 µM (inactive)

CCN(CC)C(=O)C1CCN(Cc2ccc(Br)cc2)CC1
IC50 [1]: > 10 µM | IC50 [2]: > 10 µM (inactive)

COc1ccc2oc(=O)c(-c3nnc(NCc4ccco4)s3)cc2c1
IC50 [1]: > 10 µM | IC50 [2]: > 10 µM (inactive)

CCOC(=O)Cc1c(C)c2ccc(N(CC)CC)cc2oc1=O
IC50 [1]: > 10 µM | IC50 [2]: > 10 µM (inactive)

C/C(CCC12CC3CC(CC(C3)C1)C2)=N\NC(N)=S
IC50 [1]: 5.28 µM | IC50 [2]: 4.94 µM

Cc1ccc(SC(C)C(=O)Nc2ncn[nH]2)cc1 (configuration not stated)
IC50 [1]: > 10 µM | IC50 [2]: > 10 µM (inactive)

CCc1n[nH]c2c1/C(=N\O)CC(C)(C)C2
IC50 [1]: > 10 µM | IC50 [2]: > 10 µM (inactive)

Cc1ccnc(N2C(=O)c3cccc4c([N+](=O)[O-])ccc(c34)C2=O)c1
IC50 [1]: 4.22 µM | IC50 [2]: 7.94 µM (inactive)

COc1ccc(C2CC(=O)C3=C(C2)NC(C)=C(C(=O)Nc2ccccc2C)C3c2coc3ccc(C)cc3c2=O)cc1OC (configuration not stated)
IC50 [1]: > 10 µM | IC50 [2]: > 10 µM (inactive)

O=C(c1ccc(Cl)cc1Cl)N1CCC(c2nc3c(nnn3Cc3ccco3)c(=O)[nH]2)CC1
IC50 [1]: > 10 µM | IC50 [2]: > 10 µM (inactive)

Cc1cc(Cl)cc(C)c1OCCCCN1CCOCC1
IC50 [1]: > 10 µM | IC50 [2]: > 10 µM (inactive)

Cc1cc(O)c(/C=N/Nc2ccc(Cl)cc2)c(=O)o1
IC50 [1]: 4.69 µM | IC50 [2]: 9.39 µM (inactive)

O=C(NCC(=O)N(c1cccnc1)C(C(=O)NCc1ccco1)c1ccccc1)c1ccco1 (configuration not stated)
IC50 [1]: > 10 µM | IC50 [2]: > 10 µM (inactive)

c1ccc(Nc2cc(-c3ccccc3)nc3ncnn23)cc1
IC50 [1]: > 10 µM | IC50 [2]: > 10 µM (inactive)

O=C(NC(C(=O)c1ccccc1)N1CCCCC1)c1ccccc1 (configuration not stated)
IC50 [1]: > 10 µM | IC50 [2]: > 10 µM (inactive)

O=C(NCC(c1cccnc1)N1CCN(c2ccccc2)CC1)C1CCCCC1 (configuration not stated)
IC50 [1]: > 10 µM | IC50 [2]: > 10 µM (inactive)

COc1ccc(-c2nnc(CSc3nc4ccccc4c(=O)n3C)o2)cc1OC
IC50 [1]: > 10 µM | IC50 [2]: > 10 µM (inactive)

c1ccc(COc2ccc(CN3CCN(c4ccccn4)CC3)cc2)cc1
IC50 [1]: > 10 µM | IC50 [2]: > 10 µM (inactive)

Cc1ccc2cc(CN(CCO)Cc3nnnn3Cc3ccc(F)cc3)c(=O)[nH]c2c1
IC50 [1]: > 10 µM | IC50 [2]: > 10 µM (inactive)

Cc1cc(NCCCN2CCOCC2)n2ncc(-c3ccc(Cl)cc3)c2n1
IC50 [1]: > 10 µM | IC50 [2]: > 10 µM (inactive)

Clc1ccc2[nH]c3c(NCC4CCCO4)ncnc3c2c1 (configuration not stated)
IC50 [1]: > 10 µM | IC50 [2]: > 10 µM (inactive)

Cc1nn(Cc2cccc(C(=O)NC(C)c3ccc(C(C)(C)C)cc3)c2)c(C)c1[N+](=O)[O-] (configuration not stated)
IC50 [1]: > 10 µM | IC50 [2]: > 10 µM (inactive)

ON=Cc1cccn1-c1ccccc1
IC50 [1]: > 10 µM | IC50 [2]: > 10 µM (inactive)

O=C(NCc1ccc2c(c1)OCO2)C1CCCN1C(=O)Nc1ccccc1 (configuration not stated)
IC50 [1]: > 10 µM | IC50 [2]: > 10 µM (inactive)

N#CC1=C2SCC(O)(c3ccccc3)N2C(=O)CC1c1ccccc1 (configuration not stated)
IC50 [1]: > 10 µM | IC50 [2]: > 10 µM (inactive)

O=C(CCl)c1ccc(Cc2ncc(C(F)(F)F)cc2Cl)s1
IC50 [1]: 8.68 µM | IC50 [2]: > 10 µM (inactive)

Clc1cc(Br)ccc1OCCOCCN1CCOCC1
IC50 [1]: > 10 µM | IC50 [2]: > 10 µM (inactive)

O=C(NCc1ccccc1)NS(=O)(=O)c1ccccc1Cl
IC50 [1]: > 10 µM | IC50 [2]: > 10 µM (inactive)

CC1CCCCN1CCNC(=O)Cn1nc(-c2ccccc2)ccc1=O (configuration not stated)
IC50 [1]: > 10 µM | IC50 [2]: > 10 µM (inactive)

COc1ccc(C2=NC(C(F)(F)F)(C(F)(F)F)c3c(n(C)c(=O)n(C)c3=O)N2)cc1
IC50 [1]: > 10 µM | IC50 [2]: > 10 µM (inactive)

CSc1ncccc1C(=O)OCC(=O)N1CCOCC1
IC50 [1]: > 10 µM | IC50 [2]: > 10 µM (inactive)

O=C(N/N=C/c1ccc(OC(=O)c2ccccc2)cc1)c1ccc(CN2CCOCC2)cc1
IC50 [1]: > 10 µM | IC50 [2]: > 10 µM (inactive)

Cc1cc(C)n2nc(C(=O)NCc3ccccc3)cc2n1
IC50 [1]: > 10 µM | IC50 [2]: > 10 µM (inactive)

Cn1nnc2cc(C(=O)Nc3cccnc3)ccc21
IC50 [1]: > 10 µM | IC50 [2]: > 10 µM (inactive)

Cc1ccc(S(=O)(=O)NC(CC(C)C)C(=O)Oc2ccc3c4c(c(=O)oc3c2)CCC4)cc1 (configuration not stated)
IC50 [1]: > 10 µM | IC50 [2]: > 10 µM (inactive)

Cc1c(Cl)c([N+](=O)[O-])nn1Cc1ccc(C(=O)N/N=C\c2cccc(Br)c2)o1
IC50 [1]: > 10 µM | IC50 [2]: > 10 µM (inactive)

CCC(C)c1ccc(OCCCCN2CCOCC2)cc1 (configuration not stated)
IC50 [1]: > 10 µM | IC50 [2]: 24 µM

O=C(OCn1ncc(Cl)c(Cl)c1=O)c1ccc(C(F)(F)F)cc1
IC50 [1]: > 10 µM | IC50 [2]: > 10 µM (inactive)

OC(c1ccc(Cl)cc1Cl)C(Cc1cccnc1)n1cncn1 (configuration not stated)
IC50 [1]: > 10 µM | IC50 [2]: > 10 µM (inactive)

O=C(COc1ccc(Cl)cc1Cl)NCCCN1CCOCC1
IC50 [1]: > 10 µM | IC50 [2]: > 10 µM (inactive)

C=C(C)C1CC=C(CN2CC(C)OC(C)C2)CC1 (configuration not stated)
IC50 [1]: > 10 µM | IC50 [2]: > 10 µM (inactive)

Cn1c(=O)cc(NCc2ccccc2)[nH]c1=O
IC50 [1]: > 10 µM | IC50 [2]: > 10 µM (inactive)

CCC(OC(=O)C(NC(=O)c1ccccc1)c1ccccc1)C(=O)Nc1cc(C)on1 (configuration not stated)
IC50 [1]: > 10 µM | IC50 [2]: > 10 µM (inactive)

O=C(COc1ccc(Br)cc1F)NC1CCN(Cc2ccccc2)CC1
IC50 [1]: > 10 µM | IC50 [2]: > 10 µM (inactive)

CC1CCCCC1NC(=O)CSc1nnnn1-c1ccccc1 (configuration not stated)
IC50 [1]: > 10 µM | IC50 [2]: > 10 µM (inactive)

O=c1c2c3c(sc2ncn1/N=C/c1ccc([N+](=O)[O-])o1)CCCC3
IC50 [1]: 1.59 µM | IC50 [2]: 2.1 µM (inactive)

Cc1ccc(CN2CCN(/N=C/c3cc(Br)ccc3O)CC2)cc1
IC50 [1]: > 10 µM | IC50 [2]: > 10 µM (inactive)

O=c1cccc2n1CC1CC2CN(S(=O)(=O)c2ccccc2)C1 (configuration not stated)
IC50 [1]: > 10 µM | IC50 [2]: > 10 µM (inactive)

CCOC(=O)c1ccc(NC(=O)c2ccc(CN3CCOCC3)cc2)cc1
IC50 [1]: > 10 µM | IC50 [2]: > 10 µM (inactive)

O=C1c2cccc3c([N+](=O)[O-])ccc(c23)C(=O)N1c1ccc(Cl)cn1
IC50 [1]: 6.08 µM | IC50 [2]: 14.5 µM (inactive)

Cc1cc(C)nc(N/N=C/C(Cl)=C/c2ccccc2)n1
IC50 [1]: > 10 µM | IC50 [2]: > 10 µM (inactive)

CCN(CC)CCn1nc(C)nc1-c1ccccc1O
IC50 [1]: > 10 µM | IC50 [2]: > 10 µM (inactive)

C=C(C)COc1ccc(-c2ncncc2Oc2ccc(OC)cc2)c(O)c1
IC50 [1]: > 10 µM | IC50 [2]: > 10 µM (inactive)
